What was measured:
mouse EP3 = target: T1, mouse EP3 (Mus musculus, UniProt P30557); assay: Binding assay using expression cell of prostanoid receptor subtype (EP3; competition of specific 3H-PGE2 binding to CHO cell membrane fraction); conditions: Table 1, 3H-PGE2 2.5 nM, 1 hour, room temperature, pH6.0, read-out: dissociation constant to receptor subtype, Ki (EP3), present invention compounds
T1 construct: expressed in transfected cells; host or cells: CHO
T1 sequence (P30557 1-365): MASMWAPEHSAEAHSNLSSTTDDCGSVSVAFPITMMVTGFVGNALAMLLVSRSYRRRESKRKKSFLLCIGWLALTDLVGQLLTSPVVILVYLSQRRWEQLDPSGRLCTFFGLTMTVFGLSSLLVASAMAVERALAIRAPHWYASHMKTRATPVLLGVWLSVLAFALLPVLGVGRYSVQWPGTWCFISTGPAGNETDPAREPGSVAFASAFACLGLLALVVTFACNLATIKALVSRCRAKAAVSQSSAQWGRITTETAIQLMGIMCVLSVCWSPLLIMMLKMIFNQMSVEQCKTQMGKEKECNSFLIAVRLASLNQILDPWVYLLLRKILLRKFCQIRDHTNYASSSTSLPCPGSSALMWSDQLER
Procedure: (§1) (i) Binding Assay Using Expression Cell of Prostanoid Receptor Subtype
(§2) The standard assay mixture contained membrane fraction (0.5 mg/ml), ^3 H-PGE2 in a final volume of 200 microliter was incubated for 1 hour at room temperature. The reaction was terminated by addition of 3 ml of ice-cold buffer. The mixture was rapidly filtered through a glass filter (GF/B). The radioactivity associated with the filter was measured by liquid scintillation counting.
(§3) Non-specific binding was calculated as the binding in the presence of an excess (2.5 microM) of unlabeled PGE2. […] The following buffer was used in all reaction. Buffer:potassium phosphate (pH6.0, 10 mM), EDTA (1 mM), MgCl2 (10 mM), NaCl (0.1M).
(§4) The dissociation constant Ki (microM) of each compound was calculated by the following equation.

mouse EP1 = target: T2, mouse EP1 (Mus musculus, UniProt P35375); assay: Binding assay using expression cell of prostanoid receptor subtype (EP1; competition of specific 3H-PGE2 binding to CHO cell membrane fraction); conditions: Table 1, 3H-PGE2 2.5 nM, 1 hour, room temperature, pH6.0, read-out: dissociation constant to receptor subtype, Ki (EP1), present invention compounds
T2 construct: expressed in transfected cells; host or cells: CHO
T2 sequence (P35375 1-405): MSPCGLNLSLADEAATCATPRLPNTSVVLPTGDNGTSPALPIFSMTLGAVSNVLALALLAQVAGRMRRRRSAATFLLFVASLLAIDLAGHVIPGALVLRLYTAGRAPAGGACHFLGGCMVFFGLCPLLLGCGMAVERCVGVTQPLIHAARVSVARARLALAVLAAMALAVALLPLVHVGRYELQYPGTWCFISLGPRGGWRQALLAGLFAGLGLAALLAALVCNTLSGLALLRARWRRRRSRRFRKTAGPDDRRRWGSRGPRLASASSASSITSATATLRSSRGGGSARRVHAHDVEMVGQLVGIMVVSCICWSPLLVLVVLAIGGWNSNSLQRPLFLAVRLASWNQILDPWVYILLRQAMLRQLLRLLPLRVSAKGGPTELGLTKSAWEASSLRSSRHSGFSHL
Procedure: as §1, §2, §3, §4

SMILES | Ki (mouse EP3) [µM] | Ki (mouse EP1) [µM]
Cc1cc(Cl)ccc1S(=O)(=O)NC[C@H]1C2CCC(CC2)[C@@H]1/C=C\CCCC(=O)O [Example 2(c), 6-[(2S, 3S)-3-(4-chloro-2-methylphenylsulfonylaminomethyl)bicyclo[2.2. 2]octan-2-yl]-5Z-hexenoic acid] | 0.2 | 0.0018
Cc1cc(Br)ccc1S(=O)(=O)NC[C@H]1C2CCC(CC2)[C@H]1/C=C\CCCC(=O)O [Example 2(d), 6-[(2S, 3S)-3-(4-bromo-2-methylphenylsulfonylaminomethyl)bicyclo[2.2. 2]octan-2-yl]-5Z-hexenoic acid] | 0.085 | 0.0014
O=C(O)CCC/C=C\[C@@H]1C2CCC(CC2)[C@@H]1CNS(=O)(=O)c1c(Cl)cc(Cl)cc1Cl [Example 2(g), 6-[(2S, 3S)-3-(2,4,6-trichlorophenylsulfonylaminomethyl)bicyclo[2.2. 2]octan-2-yl]-5Z-hexenoic acid] | 0.95 | 0.0034
Cc1cc(Cl)cc(Cl)c1S(=O)(=O)NC[C@H]1C2CCC(CC2)[C@H]1/C=C\CCCC(=O)O [Example 2(k), 6-[(2S, 3S)-3-(2,4-dichloro-6-methylphenylsulfonylaminomethyl)bicyclo[2.2. 2]octan-2-yl]-5Z-hexenoic acid] | 1.4 | 0.0024
Cc1cc(Cl)ccc1S(=O)(=O)NC[C@H]1C2CCC(CC2)[C@H]1/C=C/CCCC(=O)O [Example 2(n), 6-[(2S, 3S)-3-(4-chloro-2-methylphenylsulfonylaminomethyl)bicyclo[2.2. 2]-octan-2-yl]-5E-hexenoic acid] | 1.9 | 0.0051
O=C(O)CCC/C=C\[C@@H]1C2CCC(CC2)[C@@H]1CNS(=O)(=O)c1ccc(Cl)cc1Cl [Example 2, 6-[(2S, 3S)-3-(2,4-dichlorophenylsulfonylaminomethyl)bicyclo[2.2. 2]octan-2-yl]-5Z-hexenoic acid] | 0.12 | 0.0005
O=C(O)CCC/C=C\[C@H]1CCCC[C@@H]1CNS(=O)(=O)c1ccc(Cl)cc1Cl [Example 3(a), 6-[(1R, 2S)-2-(2,4-dichlorophenylsulfonylaminomethyl)cyclohexyl]-5Z-hexenoic acid] | 0.018 | 0.0031
O=C(O)CCC/C=C\[C@H]1CCCC[C@@H]1CNS(=O)(=O)c1c(Cl)cc(Cl)cc1Cl [Example 3(e), 6-[(1R, 2S)-2-(2,4,6-trichlorophenylsulfonylaminomethyl)cyclohexyl]-5Z-hexenoic acid] | 0.11 | 0.0084
Cc1cc(Cl)ccc1S(=O)(=O)NC[C@H]1CCCC[C@@H]1/C=C\CCCC(=O)O [Example 3(f), 6-[(1R, 2S)-2-(4-chloro-2-methylphenylsulfonylaminomethyl)cyclohexyl]-5Z-hexenoic acid] | 0.041 | 0.0011
Cc1cc(Cl)ccc1S(=O)(=O)NC[C@H]1CC=CC[C@@H]1/C=C\CCCC(=O)O [Example 4(b), 6-[(4R, 5S)-5-(4-chloro-2-methylphenylsulfonylaminomethyl)cyclohexen-4-yl]-5Z-hexenoic acid] | 0.052 | 0.017
O=C(O)CCC/C=C\[C@H]1CC=CC[C@@H]1CNS(=O)(=O)c1ccc(Cl)cc1F [Example 4(c), 6-[(4R, 5S)-5-(4-chloro-2-fluorophenylsulfonylaminomethyl)cyclohexen-4-yl]-5Z-hexenoic acid] | 0.18 | 0.039
Cc1cc(Br)ccc1S(=O)(=O)NC[C@H]1CC=CC[C@@H]1/C=C\CCCC(=O)O [Example 4(f), 6-[(4R, 5S)-5-(4-bromo-2-methylphenylsulfonylaminomethyl)cyclohexen-4-yl]-5Z-hexenoic acid] | 0.012 | 0.0057
O=C(O)CCC/C=C\[C@@H]1[C@@H]2CC[C@@H](C2)[C@@H]1CNS(=O)(=O)c1ccc(Cl)cc1Cl [Example 5(a), 6-[(1R, 2S, 3S, 4S)-3-(2,4-dichlorophenylsulfonylaminomethyl)bicyclo[2.2. 1]-heptan-2-yl]-5Z-hexenoic acid] | 0.28 | 0.012
O=C(O)CCC/C=C\[C@@H]1[C@@H]2CC[C@@H](C2)[C@@H]1CNS(=O)(=O)c1ccc(Cl)cc1F [Example 5(d), 6-[(1R, 2S, 3S, 4S)-3-(4-chloro-2-fluorophenylsulfonylaminomethyl)bicyclo[2.2. 1]heptan-2-yl]-5Z-hexenoic acid] | 1.2 | 0.023
Cc1cc(Cl)ccc1S(=O)(=O)NC[C@H]1[C@H]2CC[C@H](C2)[C@H]1/C=C\CCCC(=O)O [Example 5(e), 6-[(1R, 2S, 3S, 4S)-3-(4-chloro-2-methylphenylsulfonylaminomethyl)bicyclo[2.2. 1]heptan-2-yl]-5Z-hexenoic acid] | 0.2 | 0.0072
O=C(O)CCC/C=C\[C@@H]1[C@@H](CNS(=O)(=O)c2ccc(Cl)cc2Cl)[C@@H]2C=C[C@H]1CC2 [Example 6(a), 6-[(1S, 4R, 5S, 6S)-6-(2,4-dichlorophenylsulfonylaminomethyl)bicyclo[2.2. 2]-oct-2-en-5-yl]-5Z-hexenoic acid] | 0.37 | 0.0039
Cc1cc(Cl)cc(C)c1S(=O)(=O)NC[C@@H]1[C@@H](/C=C\CCCC(=O)O)[C@H]2C=C[C@@H]1CC2 [Example 6(e), 6-[(1S, 4R, 5S, 6S)-6-(4-chloro-2,6-dimethylphenylsulfonylaminomethyl)bicyclo[2.2. 2]oct-2-en-5-yl]-5Z-hexenoic acid] | 1.1 | 0.0042
O=C(O)CCC/C=C\[C@@H]1[C@@H](CNS(=O)(=O)c2ccc(Cl)cc2F)[C@H]2C=C[C@@H]1CC2 [Example 7(d), 6-[(1R, 4S, 5S, 6S)-6-(4-chloro-2-fluorophenylsulfonylaminomethyl)bicyclo[2.2. 2]oct-2-en-5-yl]-5Z-hexenoic acid] | 1.4 | 0.0039
O=C(O)CCC/C=C\[C@@H]1[C@@H](CNS(=O)(=O)c2c(Cl)cc(Cl)cc2Cl)[C@H]2C=C[C@@H]1CC2 [Example 7(f), 6-[(1R, 4S, 5S, 6S)-6-(2,4,6-trichlorophenylsulfonylaminomethyl)bicyclo[2.2. 2]oct-2-en-5-yl]-5Z-hexenoic acid] | 1.5 | 0.0072

Source: patent US6235777A, “Benzenesulfonamide compounds” (Ono Pharmaceutical Co., Ltd., priority 1997, dated 2001)
